Legend:
human D2R/β-arrestin [1] = target: T1, human D2R/β-arrestin (Homo sapiens (Human), UniProt P14416); test: β-Arrestin agonist assay (PathHunter); assay type: cell-based; settings: CHO-K1 cell line expressing human D2R/β-arrestin
How it was run: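 After compound incubation, detection reagent (Buffer:Emerald II:Galactor-Star, 19:5:1) added and luminescence or fluorescence read.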

human D2R/β-arrestin [2] = target: T1, human D2R/β-arrestin; test: Gi/cAMP agonist assay (Lance Ultra cAMP, Forskolin); assay type: cell-based; settings: CHO-K1 cell line expressing human D2R/β-arrestin
How it was run: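 Cells were plated and incubated before compounds were pin-transferred and incubated for 10 min at 37 °C. Forskolin was then added to stimulate cAMP. cAMP was detected by Lance Ultra TR-FRET using Eu-cAMP tracer and ULight-anti-cAMP antibody.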

human D2R/β-arrestin [3] = target: T1, human D2R/β-arrestin; test: cell-based; settings: β-arrestin Antagonist, CHO-K1 cell line expressing human D2R/β-arrestin; quinpirole used as agonist
human D2R/β-arrestin [4] = target: T1, human D2R/β-arrestin; test: cell-based; settings: cAMP Antagonist, CHO-K1 cell line expressing human D2R/β-arrestin; quinpirole used as agonist

T1 sequence (P14416 whole entry): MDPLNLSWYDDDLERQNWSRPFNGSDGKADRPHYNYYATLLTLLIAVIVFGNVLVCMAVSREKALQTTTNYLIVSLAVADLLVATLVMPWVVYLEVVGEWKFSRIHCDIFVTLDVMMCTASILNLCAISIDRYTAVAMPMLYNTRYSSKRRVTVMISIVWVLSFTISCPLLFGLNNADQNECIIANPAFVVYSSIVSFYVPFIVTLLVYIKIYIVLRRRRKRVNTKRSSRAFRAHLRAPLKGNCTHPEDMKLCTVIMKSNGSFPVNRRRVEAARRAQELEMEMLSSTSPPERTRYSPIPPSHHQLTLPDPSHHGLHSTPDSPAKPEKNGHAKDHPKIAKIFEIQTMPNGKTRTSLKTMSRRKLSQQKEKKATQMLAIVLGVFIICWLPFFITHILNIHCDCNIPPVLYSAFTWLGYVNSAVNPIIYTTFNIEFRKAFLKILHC

Structure (SMILES) | EC50 (human D2R/β-arrestin [1]) [µM] | EC50 (human D2R/β-arrestin [2]) [µM] | IC50 (human D2R/β-arrestin [3]) [µM] | IC50 (human D2R/β-arrestin [4]) [µM]
COc1ccc(C(NC(=O)C2CCN(CCOc3ccccc3)CC2)c2ccccn2)cc1 (centres unmarked) [Compound 34] | > 30 | 0.1 to 1 | 1 to 10 | > 30
O=C(NC(c1ccc(Cl)cc1)c1ccccn1)C1CCN(CCOc2ccccc2)CC1 (single isomer, unassigned) [Compound 63a, N-((4-chlorophenyl)(pyridin-2-yl)methyl)-1-(2-phenoxyethyl)piperidine-4-carboxamide] | > 30 | 0.1 to 1 | 1 to 10 | > 30
CC(C)C(NC(=O)C1CCN(CCOc2ccccc2)CC1)c1ccccn1 (centres unmarked) [Compound 38, N-(2-methyl-1-(pyridin-2-yl)propyl)-1-(2-phenoxyethyl)piperidine-4-carboxamide] | > 30 | 1 to 10 | 1 to 10 | > 30
COc1cccc(C(NC(=O)C2CCN(CCOc3ccccc3C(F)(F)F)CC2)c2ccccn2)c1 (centres unmarked) [Compound 20, N-((3-methoxyphenyl)(pyridin-2-yl)methyl)-1-(2-(2-(trifluoromethyl)phenoxy)ethyl) piperidine-4-carboxamide] | > 30 | > 30 | 0.1 to 1 | < 0.1
O=C(NC(c1ccc(Cl)cc1)c1ccccn1)C1CCN(CCCCOc2ccccc2)CC1 (centres unmarked) [Compound 110] | > 30 | > 30 | 1 to 10 | 0.1 to 1
O=C(NC(c1ccc(F)cc1)c1ccccn1)C1CCN(Cc2nc3ccccc3o2)CC1 (centres unmarked) [Compound 60, 1-(benzo[d]oxazol-2-ylmethyl)-N-((4-fluorophenyl)(pyridin-2-yl)methyl)piperidine-4-carboxamide] | > 30 | > 30 | > 30 | > 30
O=C(NC(c1ccc(F)cc1)c1ccccn1)C1CCN(CCOc2ccc3ncsc3c2)CC1 (centres unmarked) [Compound 55, 1-(2-(benzo[d]thiazol-6-yloxy)ethyl)-N-((4-fluorophenyl)(pyridin-2-yl)methyl)piperidine-4-carboxamide] | > 30 | > 30 | 1 to 10 | 1 to 10
CN(CC1CCN(CCOc2ccccc2F)CC1)C(c1ccc(Cl)cc1)c1ccccn1 (single isomer, unassigned) [Compound 72b, 1-(4-chlorophenyl)-N-((1-(2-(2-fluorophenoxy)ethyl)piperidin-4-yl)methyl)-N-methyl-1-(pyridin-2-yl)methanamine] | > 30 | > 30 | < 0.1 | < 0.1
O=C(NC(c1ccccc1)c1ccccn1)C1CCN(CCOc2ccccc2)CC1 (centres unmarked) [Compound 113, 1-(2-phenoxyethyl)-N-(phenyl(pyridin-2-yl)methyl)piperidine-4-carboxamide] | > 30 | < 0.1 | 1 to 10 | > 30
O=C(NC(c1ccc(Cl)cc1)c1ccccn1)C1CCN(CCOc2cccc(Cl)c2)CC1 (single isomer, unassigned) [Compound 1a, 1-(2-(3-chlorophenoxy)ethyl)-N-((4-chlorophenyl)(pyridin-2-yl)methyl)piperidine-4-carboxamide] | > 30 | > 30 | 1 to 10 | 0.1 to 1
Fc1ccccc1OCCN1CCC(CN(CC(F)(F)F)C(c2ccc(Cl)cc2)c2ccccn2)CC1 (single isomer, unassigned) [Compound 136a, N-((4-chlorophenyl)(pyridin-2-yl)methyl)-2,2,2-trifluoro-N-((1-(2-(2-fluorophenoxy)ethyl)piperidin-4-yl)methyl)ethan-1-amine] | 0.1 to 1 | 1 to 10 | 0.1 to 1 | > 30
CN(CC1CCN(CCOc2ccccc2)CC1)C(c1ccc(Cl)cc1)c1ccccn1 (single isomer, unassigned) [Compound 79a, 1-(4-chlorophenyl)-N-methyl-N-((1-(2-phenoxyethyl)piperidin-4-yl)methyl)-1-(pyridin-2-yl)methanamine] | > 30 | > 30 | 1 to 10 | 1 to 10
CN(CC1CCN(CCOc2ccccc2)CC1)C(c1ccc(F)cc1)c1ccccn1 (centres unmarked) [Compound 74, 1-(4-fluorophenyl)-N-methyl-N-((1-(2-phenoxyethyl)piperidin-4-yl)methyl)-1-(pyridin-2-yl)methanamine] | > 30 | < 0.1 | 0.1 to 1 | 0.1 to 1
CC(C)N(CC1CCN(CCOc2ccccc2F)CC1)C(c1ccc(Cl)cc1)c1ccccn1 (single isomer, unassigned) [Compound 133a, N-((4-chlorophenyl)(pyridin-2-yl)methyl)-N-((1-(2-(2-fluorophenoxy)ethyl)piperidin-4-yl)methyl)propan-2-amine] | > 30 | > 30 | < 0.1 | < 0.1

From US10752588B2 (The Broad Institute, Inc., priority 2014, dated 2020)
